According to patent publication US20240067693A1, “POLYPEPTIDES AND USES THEREOF” (MEDIMMUNE LIMITED, priority 2020, published 2024):
Numbered stars: 1 amine (or outer) side, 2 acyl side, 3 side chain; on linkers, the order of the positions; unused ones are H or OH. Bridge positions count the residues as written; N and C are the ends. Square brackets hold non-standard residues; d marks the D form. Side chains are listed from the residue outwards. Peptide text beside a SMILES is read from it. * marks the point of attachment. C18 diacid = O=C(O)CCCCCCCCCCCCCCCCC(=O)*; γGlu = O=C(O)[C@H](CCC(=O)[*:2])N[*:1]; Aib = CC(C)(N)C(=O)O

How the values were obtained:
[1] = molecular target: T1, human amylin receptor (calcitonin receptor co-expressed with receptor activity modifying protein, RAMP3) (hAMYR3) (Homo sapiens, UniProt O60896+P30988); experiment: cAMP production in 1321N1 cells with stable recombinant expression of human amylin receptor (hAMYR3); format: cell-based; settings: for Ratio (selectivity hAMYR vs hCTR, ratio of EC50 values at the two receptors): EC50 hCTR / EC50 hAMYR3; for EC50: cAMP, 1321N1 cells, assay buffer with 0.1% BSA, read-out: EC50 (pM) hAMYR3
T1 construct: expressed in transfected cells
T1 sequence (P30988 25-474): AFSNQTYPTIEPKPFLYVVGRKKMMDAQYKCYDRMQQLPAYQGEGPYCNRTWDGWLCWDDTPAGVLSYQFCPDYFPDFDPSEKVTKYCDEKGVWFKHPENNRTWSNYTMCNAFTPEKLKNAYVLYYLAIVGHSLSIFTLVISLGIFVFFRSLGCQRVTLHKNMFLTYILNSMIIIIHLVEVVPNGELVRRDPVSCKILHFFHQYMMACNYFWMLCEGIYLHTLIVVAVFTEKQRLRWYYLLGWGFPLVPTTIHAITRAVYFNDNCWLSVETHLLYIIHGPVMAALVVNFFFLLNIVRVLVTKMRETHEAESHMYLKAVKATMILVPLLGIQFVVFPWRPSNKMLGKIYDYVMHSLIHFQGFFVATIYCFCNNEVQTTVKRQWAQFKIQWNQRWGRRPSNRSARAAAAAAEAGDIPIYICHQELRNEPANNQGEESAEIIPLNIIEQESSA
T1 sequence (O60896 24-148 partner): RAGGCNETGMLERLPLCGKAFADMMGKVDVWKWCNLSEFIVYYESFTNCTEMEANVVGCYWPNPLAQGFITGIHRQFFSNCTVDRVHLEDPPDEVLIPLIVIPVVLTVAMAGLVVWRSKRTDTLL
Outline: (§1)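 Receptor-expressing cells (human receptors in 1321N1, rat receptors in HEK) incubated 30 min at room temperature with peptide in HBSS/HEPES pH 7.4, 0.1% BSA, 0.5 mM IBMX. cAMP read by HTRF; EC50 from 4-parameter fit as % of maximal amylin or calcitonin response.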

[2] = molecular target: T2, human calcitonin receptor (hCTR) (Homo sapiens, UniProt P30988); experiment: cAMP production in 1321N1 cells with stable recombinant expression of human calcitonin receptor (hCTR); format: cell-based; settings: cAMP, 1321N1 cells, assay buffer with 0.1% BSA; read-out: EC50 (pM) hCTR
T2 construct: expressed in transfected cells
T2 sequence (P30988 25-474): T1 sequence (P30988 25-474)
Outline: as §1

Ratio (selectivity hAMYR vs hCTR, ratio of EC50 values at the two receptors) [1] | EC50 [1] [pM] | EC50 [2] [pM] | SMILES
2 | 691 | 1170 | CC[C@H](C)[C@H](NC(=O)[C@@H]1CCCN1C(=O)CNC(=O)[C@H](Cc1ccccc1)NC(=O)[C@H](CC(N)=O)NC(=O)[C@H](CC(N)=O)NC(=O)[C@H](CO)NC(=O)[C@H](CO)NC(=O)[C@H](Cc1c[nH]cn1)NC(=O)C(C)(C)NC(=O)[C@H](CC(C)C)NC(=O)[C@H](Cc1ccccc1)NC(=O)[C@H](CC(N)=O)NC(=O)[C@H](C)NC(=O)[C@H](CC(C)C)NC(=O)[C@H](CCCNC(=N)N)NC(=O)[C@H](CCC(N)=O)NC(=O)[C@@H](NC(=O)[C@H](C)NC(=O)[C@@H]1CSSC[C@H](NC(=O)[C@H](CCCCN)NC(=O)[C@@H](N)CCCCNC(=O)CC[C@H](NC(=O)CCCCCCCCCCCCCCCCC(=O)O)C(=O)O)C(=O)N[C@@H](CC(N)=O)C(=O)N[C@@H]([C@@H](C)O)C(=O)N[C@@H](C)C(=O)N[C@@H]([C@@H](C)O)C(=O)N1)[C@@H](C)O)C(=O)NC(C)(C)C(=O)N1CCC[C@H]1C(=O)N1CCC[C@H]1C(=O)N[C@H](C(=O)N[C@@H](CC(N)=O)C(=O)N[C@H](C(=O)NCC(=O)N[C@@H](CO)C(=O)N[C@@H](CC(N)=O)C(=O)N[C@H](C(=O)N[C@@H](Cc1ccc(O)cc1)C(N)=O)[C@@H](C)O)C(C)C)[C@@H](C)O [Peptide 95, K(γE-C18diacid)K[CNTATC]ATQRLANFL(Aib)HSSNNFGPI(Aib)PPTNVGSNTY-amide] (H-K([γGlu-C18 diacid])KCNTATCATQRLANFL[Aib]HSSNNFGPI[Aib]PPTNVGSNTY-NH2; disulfide 3-8)
15 | 446 | 6690 | CC[C@H](C)[C@H](NC(=O)[C@@H]1CCCN1C(=O)CNC(=O)[C@H](Cc1ccccc1)NC(=O)[C@H](CC(N)=O)NC(=O)[C@H](Cc1c[nH]cn1)NC(=O)[C@H](CO)NC(=O)[C@H](CO)NC(=O)[C@H](Cc1c[nH]cn1)NC(=O)C(C)(C)NC(=O)[C@H](CC(C)C)NC(=O)[C@H](Cc1ccccc1)NC(=O)[C@H](CCC(=O)O)NC(=O)[C@H](C)NC(=O)[C@H](CC(C)C)NC(=O)[C@H](CCCNC(=N)N)NC(=O)[C@H](CCC(N)=O)NC(=O)[C@@H](NC(=O)[C@H](C)NC(=O)[C@@H]1CSSC[C@H](NC(=O)[C@H](CCCCN)NC(=O)[C@@H](N)CCCCNC(=O)CC[C@H](NC(=O)CCCCCCCCCCCCCCCCC(=O)O)C(=O)O)C(=O)N[C@@H](CC(N)=O)C(=O)N[C@@H]([C@@H](C)O)C(=O)N[C@@H](C)C(=O)N[C@@H]([C@@H](C)O)C(=O)N1)[C@@H](C)O)C(=O)N[C@@H](CC(C)C)C(=O)N1CCC[C@H]1C(=O)N1CCC[C@H]1C(=O)N[C@H](C(=O)N[C@@H](CC(N)=O)C(=O)N[C@H](C(=O)NCC(=O)N[C@@H](CO)C(=O)N[C@@H](CC(N)=O)C(=O)N[C@H](C(=O)N[C@@H](Cc1ccc(O)cc1)C(N)=O)[C@@H](C)O)C(C)C)[C@@H](C)O [Peptide 130] (H-K([γGlu-C18 diacid])KCNTATCATQRLAEFL[Aib]HSSHNFGPILPPTNVGSNTY-NH2; disulfide 3-8; N-terminus assumed)
3 | 118 | 401 | CC[C@H](C)[C@H](NC(=O)[C@@H]1CCCN1C(=O)CNC(=O)[C@H](Cc1ccccc1)NC(=O)[C@H](CC(N)=O)NC(=O)C(C)(C)NC(=O)[C@H](CO)NC(=O)[C@H](CO)NC(=O)[C@H](Cc1c[nH]cn1)NC(=O)[C@@H](NC(=O)[C@H](CC(C)C)NC(=O)[C@H](Cc1ccccc1)NC(=O)[C@H](CC(N)=O)NC(=O)[C@H](C)NC(=O)[C@H](CC(C)C)NC(=O)[C@H](CCCNC(=N)N)NC(=O)[C@H](CCC(N)=O)NC(=O)[C@@H](NC(=O)[C@H](C)NC(=O)[C@@H]1CSSC[C@H](NC(=O)[C@H](CCCCN)NC(=O)[C@@H](N)CCCCNC(=O)CC[C@H](NC(=O)CCCCCCCCCCCCCCCCC(=O)O)C(=O)O)C(=O)N[C@@H](CC(N)=O)C(=O)N[C@@H]([C@@H](C)O)C(=O)N[C@@H](C)C(=O)N[C@@H]([C@@H](C)O)C(=O)N1)[C@@H](C)O)C(C)C)C(=O)N[C@@H](CC(C)C)C(=O)N1CCC[C@H]1C(=O)N1CCC[C@H]1C(=O)N[C@H](C(=O)N[C@@H](CC(N)=O)C(=O)N[C@H](C(=O)NCC(=O)NC(C)(C)C(=O)N[C@@H](CC(N)=O)C(=O)N[C@H](C(=O)N[C@@H](Cc1ccc(O)cc1)C(N)=O)[C@@H](C)O)C(C)C)[C@@H](C)O [Peptide 84, K(γE-C18diacid)K[CNTATC]ATQRLANFLVHSS(Aib)NFGPILPPTNVG(Aib)NTY-amide] (H-K([γGlu-C18 diacid])KCNTATCATQRLANFLVHSS[Aib]NFGPILPPTNVG[Aib]NTY-NH2; disulfide 3-8; N-terminus assumed)
1.2 | 296 | 345 | CC[C@H](C)[C@H](NC(=O)[C@@H]1CCCN1C(=O)CNC(=O)[C@H](Cc1ccccc1)NC(=O)[C@H](Cc1c[nH]cn1)NC(=O)[C@H](CC(N)=O)NC(=O)[C@H](CO)NC(=O)[C@H](CO)NC(=O)[C@H](Cc1c[nH]cn1)NC(=O)C(C)(C)NC(=O)[C@H](CC(C)C)NC(=O)[C@H](Cc1ccccc1)NC(=O)[C@H](CC(N)=O)NC(=O)[C@H](C)NC(=O)[C@H](CC(C)C)NC(=O)[C@H](CCCNC(=N)N)NC(=O)[C@H](CCC(N)=O)NC(=O)[C@@H](NC(=O)[C@H](C)NC(=O)[C@@H]1CSSC[C@H](NC(=O)[C@H](CCCCN)NC(=O)[C@@H](N)CCCCNC(=O)CC[C@H](NC(=O)CCCCCCCCCCCCCCCCC(=O)O)C(=O)O)C(=O)N[C@@H](CC(N)=O)C(=O)N[C@@H]([C@@H](C)O)C(=O)N[C@@H](C)C(=O)N[C@@H]([C@@H](C)O)C(=O)N1)[C@@H](C)O)C(=O)N[C@@H](CC(C)C)C(=O)N1CCC[C@H]1C(=O)N1CCC[C@H]1C(=O)N[C@H](C(=O)N[C@@H](CC(N)=O)C(=O)N[C@H](C(=O)NCC(=O)N[C@@H](CO)C(=O)N[C@@H](CC(N)=O)C(=O)N[C@H](C(=O)N[C@@H](Cc1ccc(O)cc1)C(N)=O)[C@@H](C)O)C(C)C)[C@@H](C)O [Peptide 135] (H-K([γGlu-C18 diacid])KCNTATCATQRLANFL[Aib]HSSNHFGPILPPTNVGSNTY-NH2; disulfide 3-8; N-terminus assumed)
1 | 364 | 459 | CC[C@H](C)[C@H](NC(=O)[C@@H]1CCCN1C(=O)CNC(=O)[C@H](Cc1ccccc1)NC(=O)[C@H](CC(N)=O)NC(=O)[C@H](CC(N)=O)NC(=O)[C@H](CO)NC(=O)[C@H](CO)NC(=O)[C@H](Cc1c[nH]cn1)NC(=O)C(C)(C)NC(=O)[C@H](CC(C)C)NC(=O)[C@H](Cc1ccccc1)NC(=O)[C@H](CC(N)=O)NC(=O)[C@H](C)NC(=O)[C@H](CC(C)C)NC(=O)[C@H](CCCNC(=N)N)NC(=O)[C@H](CCC(N)=O)NC(=O)[C@@H](NC(=O)[C@H](C)NC(=O)[C@@H]1CSSC[C@H](NC(=O)[C@H](CCCCN)NC(=O)[C@@H](N)CCCCNC(=O)CC[C@H](NC(=O)CCCCCCCCCCCCCCCCC(=O)O)C(=O)O)C(=O)N[C@@H](CC(N)=O)C(=O)N[C@@H]([C@@H](C)O)C(=O)N[C@@H](C)C(=O)N[C@@H]([C@@H](C)O)C(=O)N1)[C@@H](C)O)C(=O)N[C@@H](CC(C)C)C(=O)N1CCC[C@H]1C(=O)N1CCC[C@H]1C(=O)N[C@H](C(=O)N[C@@H](CC(N)=O)C(=O)N[C@H](C(=O)NC(C)(C)C(=O)N[C@@H](CO)C(=O)N[C@@H](CC(N)=O)C(=O)N[C@H](C(=O)N[C@@H](Cc1ccc(O)cc1)C(N)=O)[C@@H](C)O)C(C)C)[C@@H](C)O [Peptide 100, K(γE-C18diacid)K[CNTATC]ATQRLANFL(Aib)HSSNNFGPILPPTNV(Aib)SNTY-amide] (H-K([γGlu-C18 diacid])KCNTATCATQRLANFL[Aib]HSSNNFGPILPPTNV[Aib]SNTY-NH2; disulfide 3-8; N-terminus assumed)
